Test results published in ChEMBL document CHEMBL3813599, “Identification of small-molecule compounds targeting the dishevelled PDZ domain by virtual screening and binding studies” (Bioorg Med Chem, 2016).
The source made the active and inactive calls. The calls are words filed in the database; no cut-off is given here.

Columns and labels:
[1] = biological target: T1, Segment polarity protein dishevelled homolog DVL-1 (Homo sapiens) (UniProt O14640)
T1 sequence (whole entry): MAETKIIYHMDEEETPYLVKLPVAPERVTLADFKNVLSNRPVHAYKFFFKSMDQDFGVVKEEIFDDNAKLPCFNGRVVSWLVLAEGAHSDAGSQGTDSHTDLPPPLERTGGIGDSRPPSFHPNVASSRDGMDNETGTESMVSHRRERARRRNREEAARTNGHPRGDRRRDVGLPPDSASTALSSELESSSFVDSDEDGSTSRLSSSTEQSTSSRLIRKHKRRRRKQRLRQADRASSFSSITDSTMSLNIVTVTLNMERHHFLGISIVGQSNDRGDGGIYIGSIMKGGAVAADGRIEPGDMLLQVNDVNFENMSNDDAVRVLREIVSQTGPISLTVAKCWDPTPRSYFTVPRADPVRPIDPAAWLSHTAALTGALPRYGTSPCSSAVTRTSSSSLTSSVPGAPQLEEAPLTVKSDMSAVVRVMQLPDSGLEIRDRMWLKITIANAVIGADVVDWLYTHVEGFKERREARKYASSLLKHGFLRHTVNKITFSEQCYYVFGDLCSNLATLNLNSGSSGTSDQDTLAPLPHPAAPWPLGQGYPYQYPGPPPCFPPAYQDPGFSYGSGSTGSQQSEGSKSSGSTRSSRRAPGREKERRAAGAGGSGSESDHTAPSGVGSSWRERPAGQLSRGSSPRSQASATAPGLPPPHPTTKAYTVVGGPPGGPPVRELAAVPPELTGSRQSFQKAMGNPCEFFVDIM
Description: Binding affinity to His-tagged Dvl-1 PDZ domain (247 to 337 residues) (unknown origin) expressed in Escherichia coli BL21 (DE3) assessed as association rate by SPR analysis

[2] = biological target: T2, Segment polarity protein dishevelled homolog DVL-1 (Homo sapiens, UniProt O14640); experiment: Binding affinity to His-tagged Dvl-1 PDZ domain (247 to 337 residues) (unknown origin) expressed in Escherichia coli BL21 (DE3) assessed as dissociation rate by SPR analysis
T2 sequence (O14640 whole entry): T1 sequence (whole entry)

[3] = biological target: T2, Segment polarity protein dishevelled homolog DVL-1; experiment: Binding affinity to His-tagged Dvl-1 PDZ domain (247 to 337 residues) (unknown origin) expressed in Escherichia coli BL21 (DE3) by SPR analysis
[4] = biological target: T3, Segment polarity protein dishevelled homolog DVL-1 (Mus musculus, UniProt P51141); experiment: Binding affinity to TMR-linked 15N-labeled mouse Dvl-1 domain ( 247 to 341 residues) by fluorescence spectroscopy
T3 sequence (P51141 whole entry): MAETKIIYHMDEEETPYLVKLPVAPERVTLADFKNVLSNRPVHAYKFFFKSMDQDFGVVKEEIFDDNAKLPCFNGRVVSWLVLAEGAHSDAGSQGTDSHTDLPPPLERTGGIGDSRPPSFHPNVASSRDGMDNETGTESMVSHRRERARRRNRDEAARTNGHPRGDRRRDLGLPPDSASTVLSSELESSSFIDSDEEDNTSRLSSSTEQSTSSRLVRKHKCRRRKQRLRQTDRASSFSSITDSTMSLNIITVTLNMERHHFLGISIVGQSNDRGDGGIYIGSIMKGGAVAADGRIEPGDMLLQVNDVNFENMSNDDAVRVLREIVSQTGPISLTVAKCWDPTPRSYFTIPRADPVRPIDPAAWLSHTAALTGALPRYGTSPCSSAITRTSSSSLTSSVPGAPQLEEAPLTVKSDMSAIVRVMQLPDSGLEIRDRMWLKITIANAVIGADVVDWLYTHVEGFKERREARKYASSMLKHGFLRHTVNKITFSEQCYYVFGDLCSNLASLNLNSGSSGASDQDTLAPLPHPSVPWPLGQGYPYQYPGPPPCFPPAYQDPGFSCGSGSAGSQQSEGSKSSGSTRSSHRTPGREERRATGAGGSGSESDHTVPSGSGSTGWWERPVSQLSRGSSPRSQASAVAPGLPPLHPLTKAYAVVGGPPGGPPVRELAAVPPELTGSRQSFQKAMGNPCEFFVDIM

[5] = biological target: T1, Segment polarity protein dishevelled homolog DVL-1 (Homo sapiens); experiment: Binding affinity to His-tagged Dvl-1 PDZ domain (247 to 337 residues) (unknown origin) expressed in Escherichia coli BL21 (DE3) assessed as chemical shift perturbations at 1:0 to 1:20 protein-compound ratio by 1H-15N-HSQC NMR analysis

Structure (SMILES)	Ka [1]	Dissociation rate constant (koff) [2]	Kd [3] [µM]	Kd [4] [µM]	Activity [5]
O=C(O)Cc1coc2cc(OS(=O)(=O)c3ccc(Cl)cc3F)ccc12	1.04 ×10⁴ /M/s	1.45 s⁻¹	139		
CC(C)[C@H](OC(=O)[C@H](C)NC(=O)[C@@H](OC(=O)[C@H](C)NC(=O)OC(C)(C)C)C(C)C)C(=O)O				237	
COC(=O)COc1ccc(/C=C2\Sc3ccccc3C2=O)cc1	3.2 ×10³ /M/s	2.51 s⁻¹	783		
O=C(O)C1CCN(C(=O)c2cc(-c3ccc(Cl)s3)nc3ccccc23)CC1	5.47 ×10⁴ /M/s	1.7 ×10¹ /s	311		
COC(=O)CN1C(=O)S/C(=C/c2ccc(-c3cccc(C(=O)O)c3C)o2)C1=O	4.68 ×10⁶ /M/s		251		
CCCN1C(=O)/C(=C/c2ccc(OCC(=O)O)c(Cl)c2)NC1=S	2.5 ×10³ /M/s	3.81 ×10⁻¹ /s	152		
COc1cc(/C=C2\Sc3ccccc3C2=O)ccc1OCC(=O)O	2.32 ×10³ /M/s	6.22 ×10⁻¹ /s	268		Active
